Test system: tau phosphorylation
Test: Tau phosphorylation after concussive injury in the rat (immunohistology for phosphorylated tau)
Assay type: in vivo
Conditions: rat concussion model; 1 mg/kg intravenously at 30 minutes after induction of injury; assessed at 3 day time point
Text: Note that concussive injury in the rat causes extensive tau phosphorylation (B) by 3 days after the concussive event compared to non-injured animals (A).
Having established that hyperphosphorylated tau accumulates perivascularly following concussive injury, we used an animal model of concussion to investigate whether concussion causes perivascular release of substance P. We developed a rodent model of concussion to replicate the concussive event (Donkin et al., 2004, 7th International Neurotrauma Symposium, pp 75-78, Medimond Publishers, Bologna, Italy) and subsequently determined whether substance P was released after such an event. There was a clear increase in brain perivascular substance P immunoreactivity after the concussive event (FIG. 2).
Having shown that mechanical injury causes release of substance P after concussive injury, we then investigated whether a compound of formula (I) reduces tau hyperphosphorylation after concussive injury. […] Note that concussive injury in the rat causes extensive tau phosphorylation (B) by 3 days after the concussive event compared to non-injured animals (A). […] Thus, administration of a compound of formula (I″) prevents tau hyperphosphorylation and thus prevents the development of CTE.

Cc1ccccc1-c1cc(N2CCN(C)CC2)ncc1C(=O)N(C)Cc1cc(C(F)(F)F)cc(C(F)(F)F)c1 [formula (I″)]
effect on tau phosphorylation after concussive injury: almost complete inhibition of tau phosphorylation

From US20160136160A1, “METHOD FOR PREVENTING AND/OR TREATING CHRONIC TRAUMATIC ENCEPHALOPATHY-II” (priority 2013, published 2016)
